The values below come from PubChem BioAssay AID1549 (Sanford-Burnham Center for Chemical Genomics, 2009).

The source made the active and inactive calls. How the calls were made is not given here.

In the experiment the target is Influenza A virus M2 proton channel (A/TW/4845/1999 H1N1). Briefly: NMR binding screen, influenza A virus M2 proton channel, Kd (AID 1549). Conditions: M2 protein.
For the compound `CC12CN(CC#N)CC(C)(CN(CC#N)C1)C2=O`, the Kd is > 4 mM (inactive).

With `Cc1cc(C)n(CCC(=O)O)n1`, the Kd is > 4 mM (inactive).

For `c1ccc2[nH]c(-c3cscn3)nc2c1`, the Kd was > 4 mM (inactive).

As to `CCOC(=O)c1csc(C)n1`, the Kd is > 4 mM (inactive).

On to `NCC1CN(Cc2ccccc2)CCO1` (stereo not given), for which the Kd is > 4 mM (inactive).

For the compound `OCc1ccncc1`, the Kd was > 4 mM (inactive).

For `Cn1c(CN2CC(c3ccccc3)CC2=O)n[nH]c1=S` (stereo not given), the Kd was > 4 mM (inactive).

In the case of `OCC12COC3c4ccccc4C(OC1)N32` (stereo not given), the Kd is > 4 mM (inactive).

`CC1Cc2nc(SCC(N)=O)n(C)c(=O)c2S1` (stereo not given): the Kd is > 4 mM (inactive).

As to `Cc1nn2c3ccccc3nc2n(Cc2ccccc2)c1=O`, the Kd is > 4 mM (inactive).

Take `CC(=O)Nc1nnc(-c2ccccc2S(C)(=O)=O)o1`: the Kd was > 4 mM (inactive).

For the compound `COc1cc(C(C)=O)ccc1OCC(O)Cn1ccnc1` (stereo not given), the Kd is > 4 mM (inactive).

As to `N#Cc1nc(-c2cccs2)oc1N1CCOCC1`, the Kd was > 4 mM (inactive).

On to `Cc1ccc(NC(=O)CC2NCCNC2=O)c(C)c1` (stereo not given), for which the Kd was > 4 mM (inactive).

On to `CN(C)C(=S)Nc1nc2ccccc2s1`, for which the Kd was > 4 mM (inactive).

For the compound `c1ccc(SCc2nc(-c3ccccn3)no2)cc1`, the Kd was > 4 mM (inactive).

As for `NC(=O)Cc1nc(-c2ccc(F)cc2)cs1`, the Kd is > 4 mM (inactive).

Consider `C[C@@H]1CC[C@@]2(NC1)O[C@H]1C[C@H]3C4CC=C5C[C@@H](O)CC[C@]5(C)C4CC[C@]3(C)C1[C@@H]2C` (stereo not given in full), for which the Kd is > 4 mM (inactive).

For the compound `CC(C)n1c(Nn2cnnc2)nc2ccccc21`, the Kd is > 4 mM (inactive).

For the compound `CC(=O)NC12CC3CC(CC(O)(C3)C1)C2`, the Kd was > 4 mM (inactive).

Consider `NC(=O)c1cccc2c1OCCO2`, for which the Kd was > 4 mM (inactive).

Regarding `COc1ccc(-c2cc(=O)c3c(OC(C)=O)cc(OC(C)=O)cc3o2)cc1`, the Kd is > 4 mM (inactive).

As for `CCn1cnc2cc([N+](=O)[O-])ccc2c1=O`, the Kd is > 4 mM (inactive).

On to `NC(=O)C1CCN(C2CC(=O)NC2=O)CC1` (stereo not given), for which the Kd was > 4 mM (inactive).

For `COc1ccccc1NC(=O)c1ccc(C)s1`, the Kd is > 4 mM (inactive).

As to `Cc1nccc(-c2cccc(N)c2)n1`, the Kd was > 4 mM (inactive).

On to `COc1cc(-c2csc(C)n2)ccc1O`, for which the Kd is > 4 mM (inactive).

As for `COC(=O)c1ccc(NC(=O)CC2NCCNC2=O)cc1` (stereo not given), the Kd is > 4 mM (inactive).

In the case of `OCc1cc2ccccc2o1`, the Kd was > 4 mM (inactive).

For the compound `O=S(=O)(O)c1nc2ccccc2[nH]1`, the Kd was > 4 mM (inactive).

Consider `COc1cc(-c2coc3cc(OC)c(OC)c(OC)c3c2=O)cc(OC)c1OC`, for which the Kd is > 4 mM (inactive).

With `Nc1ncnc(Cl)c1[N+](=O)[O-]`, the Kd was > 4 mM (inactive).

`Cc1csc2nc3ccccc3c(=O)n12`: the Kd is > 4 mM (inactive).

`CC(CC(=O)O)n1cccn1` (stereo not given): the Kd is > 4 mM (inactive).

For the compound `CC(C)[C@@H]1CC[C@@H](C)C[C@H]1OC(=O)c1ccccc1`, the Kd was > 4 mM (inactive).

Take `CS(=O)(=O)Nc1ccccc1C(=O)c1ccccc1`: the Kd is > 4 mM (inactive).

For the compound `OC1CC(c2ccccc2)NC2(CCCC2)C1` (stereo not given), the Kd is > 4 mM (inactive).

Consider `COC(=O)C[C@@H]1C2(C)C(=O)[C@@H](CC3=C4C=C(OC)O[C@@H](c5ccoc5)[C@]4(C)CCC32)[C@H](O)C1(C)C` (stereo not given in full), for which the Kd was > 4 mM (inactive).

As to `O=S1(=O)CCC(Nc2ccccc2)C1` (stereo not given), the Kd was > 4 mM (inactive).

Consider `COc1ccc(Cc2nnc3c4cnn(C)c4ncn23)cc1`, for which the Kd is > 4 mM (inactive).

For `O=C(O)CN1C(=O)c2cccc([N+](=O)[O-])c2C1=O`, the Kd was > 4 mM (inactive).

On to `Cc1cc(NC(=O)Cc2cccs2)no1`, for which the Kd was > 4 mM (inactive).

Regarding `Cc1ccccc1NC(=O)c1ccccc1`, the Kd is > 4 mM (inactive).

Consider `O=C(Nc1ccc(Cl)cc1)N1CCCC1`, for which the Kd was > 4 mM (inactive).

Regarding `Nc1ccnc(C(=O)O)c1`, the Kd was > 4 mM (inactive).

As to `O=C(Nc1ccc2c(c1)CCC2)c1cnccn1`, the Kd was > 4 mM (inactive).

Turning to `COC1C(O)C(O[C@H]2CC[C@]3(C=O)C4C(CC[C@]3(O)C2)[C@@]2(O)CC[C@H](C3=CC(=O)OC3)[C@@]2(C)C[C@H]4OC(C)=O)OC(C)C1OC(C)=O` (stereo not given in full), the Kd is > 4 mM (inactive).

Take `Cn1ncc(SCc2ccco2)c(Cl)c1=O`: the Kd is > 4 mM (inactive).

For the compound `CC(=O)Nc1ccc(S(=O)(=O)N2CCN=C2C)cc1`, the Kd was > 4 mM (inactive).

For `CC1=C2C(O)C(=O)OC3CC4C(C)(C)C(=O)C=C[C@]4(C)C(CC1)[C@]23C` (stereo not given in full), the Kd is > 4 mM (inactive).

`O=C(/C=C/c1ccccc1)NC1CCS(=O)(=O)C1` (stereo not given): the Kd is > 4 mM (inactive).

With `CCn1nnnc1Oc1ccc(Cl)cc1`, the Kd was > 4 mM (inactive).

For the compound `CC12CCC3C(CC3(C)C)C(C)(CCC1=O)O2` (stereo not given), the Kd is > 4 mM (inactive).

`CCC(=O)Nc1cccc(NC(C)=O)c1`: the Kd is > 4 mM (inactive).

In the case of `CN(C)S(=O)(=O)c1ccc(C(=O)NN)cc1`, the Kd was > 4 mM (inactive).

As for `OCc1snnc1-c1ccccc1`, the Kd is > 4 mM (inactive).

For the compound `Cn1c(=O)n(CC(=O)Nc2cccnc2)c2ccccc21`, the Kd was > 4 mM (inactive).

As to `O=C(Cc1ccccc1)Nc1c[nH]c(=O)[nH]c1=O`, the Kd is > 4 mM (inactive).

As for `O=C(O)c1cnc2n(c1=O)CCS2`, the Kd is > 4 mM (inactive).

On to `CCc1noc(C)c1C(=O)Nc1ncc(C)s1`, for which the Kd was > 4 mM (inactive).

Take `CC(=O)Nc1nnc(-c2ccncc2)s1`: the Kd is > 4 mM (inactive).

As for `CCCNC(CC(=O)Nc1cccnc1)C(=O)O` (stereo not given), the Kd is > 4 mM (inactive).

For `CCc1noc(C)c1C(=O)N1CCOCC1`, the Kd is > 4 mM (inactive).

Turning to `CS(=O)(=O)N1CCN(C(=O)c2ccccc2)C1`, the Kd is > 4 mM (inactive).

`Cc1ncoc1C(=O)Nc1ncc([N+](=O)[O-])s1`: the Kd was > 4 mM (inactive).

Turning to `NC1=NCc2ccccc21`, the Kd is > 4 mM (inactive).

As for `CSc1nc(-c2ccccc2)ccc1C(N)=O`, the Kd was > 4 mM (inactive).

Turning to `O=S(=O)(N1CCCCC1)n1nnc2ccccc21`, the Kd is > 4 mM (inactive).

On to `O=C1NC(=O)C(=Cc2cccs2)C(=O)N1`, for which the Kd is > 4 mM (inactive).

With `CCOC(=O)c1ccc(Oc2ccc(C)nn2)cc1`, the Kd was > 4 mM (inactive).

For the compound `CN(C)S(=O)(=O)NCc1ccc2c(c1)OCO2`, the Kd is > 4 mM (inactive).

Regarding `COc1ccc(/C=C/C(=O)O)cc1OC`, the Kd is > 4 mM (inactive).

Take `COc1ccc2c(c1)OC/C(=C/c1ccc(OC)c(OC)c1)C2=O`: the Kd was > 4 mM (inactive).

Take `Nc1cc(=O)[nH]c(SCC(=O)NCc2ccccc2)n1`: the Kd was > 4 mM (inactive).

Turning to `COC(=O)C1CCc2ccccc2N1` (stereo not given), the Kd was > 4 mM (inactive).

A word on the Kd: it is the equilibrium constant for the complex coming apart.
